Laboratory results reported in patent publication US7807162B2, “Single domain VHH antibodies against von Willebrand factor” (Ablynx N.V., priority 2005, dated 2010).
“And” between values parts separate entries of the source, which are not always exact repeats. Equal entries are not always repeated.

Columns and labels:
ADAMTS-13 [1] = assay: Cleavage of ULvWF platelet strings by ADAMTS-13 (perfusion assay); format: cell-based, human
Description: ADAMTS-13 reduces the size of large and ultralarge VWF multimers to smaller forms by specifically cleaving the Y842/M843 peptide bond in the VWF A2 domain.
In a first experiment, strings were generated by a 4 minute perfusion of washed platelets resuspended in buffer over histamine-stimulated endothelial cells. Subsequently, the non-adhered platelets were washed away by a 4 minute perfusion of buffer. After that, buffer was perfused for an other 4 minutes, followed by a 4 minute perfusion of pooled normal plasma containing ADAMTS-13. Detachment of the platelet strings was observed after perfusion of pooled normal plasma (FIG. 43). More than 95% of the strings were cleaved after the 4 minute perfusion.
In a next experiment, strings were generated by a 4 minute perfusion of washed platelets resuspended in buffer over histamine-stimulated endothelial cells and the non-adhered platelets were washed away by a 4 minute perfusion of buffer as above.

[2] = test system: ristocetin-induced platelet aggregation; assay: Ristocetin-induced platelet aggregation (RIPA) ex vivo in blood of treated baboons
Description: Platelet aggregations were performed on a Chronolog whole blood and optical Aggregometer (Model 560CA, Chronolog, USA). PRP was prepared (collected on 0.38 mol/L citrate), by centrifuging the whole blood at 1200 rpm for 5 minutes. The upper fraction containing the PRP was carefully removed. The lower fraction was further centrifuged at 3000 rpm for 10 minutes to prepare platelet poor plasma (PPP). Platelets were counted in PRP and diluted in PPP to a final concentration of 200.000 platelets per microliter. 3 mg/ml ristocetin (DAKO) was added and aggregation was measured.
The GPIb-IX-V dependent platelet aggregation through vWF is measured using ristocetin as a modulator. The % aggregation is measured at each time point and at each dose.

[3] = test system: cyclic flow reductions (CFRs) in injured, stenosed femoral artery; assay: Use of vWF as an antidote for ALX-0081 in the baboon Folts model; format: in vivo, baboon (Papio ursinus)
Excerpt: The experimental procedure followed the original Folts model with the modifications as described in the previous example 18.
Healthy male baboons (Papio ursinus) were used in this study. The animals were 9-12 kg of weight and were disease-free for at least 2 weeks prior to use. The baboons were fed with dry standard food only.

ADAMTS-13 [4] = assay: Cleavage of recombinant A1-A2-A3 vWF fragment by ADAMTS-13 (Western Blot); format: biochemical, human; details: 10 μg/ml; normal pool plasma
Description: In a second type of experiment, different reaction mixtures were prepared as summarized in table 60, however, without the addition of the A1A2A3 construct. The A1A2A3 construct is a recombinant fragment consisting out of the A1, A2 and A3 domain of vWF. Mixtures were pre-incubated for 5 minutes at 37° C. after which the A1A2A3 fragment is added and the mixture is incubated in a waterbath overnight at 37° C. […] The blot was blocked for 2 hours at room temperature with blockbuffer (1:1 Odyssey blockbuffer in 1×TBS pH=7.4) and incubated with Rabbit polyclonal anti-vWF (DAKO). Alexa Fluor 680 goat anti-rabbit was used for detection. Scanning was done on the ODYSSEY to detect the degradation products.
In a second assay, a recombinant fragment containing the A1-A2-A3 domain of vWF was mixed with normal pool plasma (NPP) containing ADAMTS-13, resulting in proteolytic cleavage of the fragment which was observed by a Western Blot analysis.

[5] = test system: cyclic flow reductions (CFRs) in injured, stenosed femoral artery; assay: Folts model in baboons: Aspegic-Heparin-Plavix combination with ALX-0081 on top; format: in vivo, baboon (Papio ursinus)
Description: Extra Heparin was administered at different time points to sustain a certain level (aPTT should be at least doubled versus control). […] The anti-thrombotic effect was quantified by comparing the length of CFRs before and after drug administration. When full inhibition of CFRs was observed, a new injury was applied. Epinephrin was injected and continued till the end of the experiment. […] (1), 3, 10 or 30 μg/kg. […] The specifications of the baboons that were used in this study are represented in table 49.

[6] = test system: cyclic flow reductions (CFRs) in injured, stenosed femoral artery; assay: Folts thrombosis model in baboons: length/inhibition of cyclic flow reductions (CFRs); format: in vivo, baboon (Papio ursinus); details: for Length of CFRs: individual baboons 16-24; for effective dose: Folts model
Description: The study protocol that was applied is the original Folts model and some modifications described below (Folts J D, et al, Circulation. 1976; 54:365-370). Healthy male or female baboons (Papio ursinus) were used. The animals were 8-17 kg of weight and were disease-free for at least 2 weeks prior to use. The baboons were fed with dry standard food only. The baboons were used at different time points. […] Animals were anaesthetized and body temperature is maintained at 37° C. with a heating table. A segment of a femoral artery was dissected free from surrounding tissue. A shunt was placed between the femoral vein and femoral artery to obtain high shear rates. The mean and phasic blood flow was recorded continuously throughout the experiment. Baseline flow was recorded for 20 minutes. […] A clamp was placed over the injured site to create an external stenosis. A gradual decline in blood flow due to platelet adhesion and aggregation was observed. When flow was reduced to zero, blood flow was restored by opening the clamp to dislodge the platelet-rich thrombus. This repetitive pattern of decreasing blood flow following mechanical restoration is referred to as cyclic flow reductions (CFRs). Additional endothelial injury was repeated if needed to finally obtain stable CFRs in these baboons. The number of times the thrombus needed to be dislodged determines the number of CFRs. FIG. 24 illustrates blood flow pattern during the Folts model in baboons. […] This procedure was repeated for several times with escalating doses of the test substance. The anti-thrombotic effect was quantified by comparing the length of CFRs before and after drug administration. When full inhibition of CFRs was observed, a new injury was applied in order to confirm that the inhibition was an effect of the treatment but not of a natural healing phenomenon.

[7] = number of experiments with inhibition / total number of independent repeats

For “ALX-0081: ALX-0081 (SEQ ID NO:98), Nanobody; humanised bivalent nanobody with the 3a linker”, the “effect on the cleavage of ULvWF strings by ADAMTS-13” value (ADAMTS-13 [1]; ALX-0081 10 μg/ml) was “does not have an effect”, the “strings cleaved after the 4 minute perfusion of pooled normal plasma” value (ADAMTS-13 [1]; ALX-0081 10 μg/ml (10-fold molar excess over vWF)) was 95% and the “relation between RIPA and the length of the CFRs” value ([2]; 3 mg/ml ristocetin) was “inverse relation”. For the same substance, the “dose for full inhibition in RIPA versus full inhibition of CFRs” value ([2]; baboons 16, 18, 19 and 23) was “full inhibition in the RIPA test is obtained at lower doses than full inhibition of CFRs”, the “Length of CFRs” value ([3]; 30 μg/kg + 45 μg/kg/hour ALX-0081, baboons 1-3) was >1800 s and the “dose at which full inhibition of CFRs was obtained” value ([3]; all three baboons, bolus followed by 45 μg/kg/hour) was 0.03 mg/kg. For the same substance, the “CFRs upon a new injury” value ([3]; at 30 μg/kg+45 μg/kg/hour ALX-0081) was “the CFRs did not return”, the “effect on the cleavage of the A1-A2-A3 vWF fragment by ADAMTS-13” value (ADAMTS-13 [4]) was “no effect” and the “CFRs upon a new injury” value ([5]; at the effective dose of ALX-0081 on top of the combination) was “the CFRs did not return”. The “dose at which full inhibition of the CFRs was obtained” value ([5]; on top of Aspegic, Heparin, Plavix, continued Epinephrin infusion, all seven baboons) was 0.03 mg/kg, the “Length of CFRs” value ([5]; on top of Aspegic/Heparin/Plavix combination: Epinephrin + effective dose ALX-0081, individual baboons 4-10) was >1800 s and the “Length of CFRs” value ([6]; ALX-0081-treated, after Epinephrin) was >1200 s (2×) and >900 s (7×). The “Length of CFRs” value ([6]; ALX-0081 final dose 3 μg/kg) was 295 s and 193 s and 144 s and 133 s and 183 s and 312 s and 112 s, the “Length of CFRs” value ([6]; ALX-0081 final dose 13 μg/kg) was 380 s and 913 s and >1800 s (2×) and 298 s and 237 s and 620 s and 525 s and 213 s and the “Length of CFRs” value ([6]; ALX-0081 final dose 43 μg/kg) was >1800 s. For the same substance, the “Length of CFRs” value ([6]; ALX-0081 final dose 133 μg/kg) was >1800 s, the effective dose [6] was 30 µg/kg and the effective dose ([6]; inhibition of CFRs, final dose, ALX-0081: + […] dose/kg/hour) was 13-43 μg/kg +. For the same substance, the “final dose at which full inhibition of CFRs was obtained” value ([6]; all baboons (nine)) was 0.043 mg/kg, the “dose at which full inhibition of CFRs was obtained” value ([6]; all baboons (nine), bolus followed by 45 μg/kg/hour infusion) was 0.03 mg/kg and the “dose at which full inhibition of CFRs was already obtained” value ([6]; baboons 17 and 22, bolus followed by 15 μg/kg/hour infusion) was 0.01 mg/kg. The “CFRs upon a new injury” value ([6]; new injury applied at full inhibition of CFRs) was “Inhibition was retained”, the “Inhibition of CFRs” value [6, 7] was 9/9 and the “Inhibition of CFRs after administration of Epinephrin” value [6, 7] was 9/9. For the same substance, the “Inhibition of CFRs after new injury” value [6, 7] was 9/9.
